Columns and labels:
[1] = system: Akt; assay: Akt phosphorylation (Ser473) in SH-SY5Y-tau-P301S cells, immunoblot; type: cell-based, human; settings: dose-dependent and MIF-dependent
Protocol: After the protein concentration of cell lysates and homogenates had been determined using the DC Protein Assay Kit (Bio-Rad), 20 μg of each sample were dissolved in NuPAGE LDS Sample buffer (including 2% β-mercaptoethanol), boiled at 100°C for 5 min and then separated on NuPAGE Novex 4–12% Bis-Tris midi gels (Invitrogen) using NuPAGE MES SDS Running buffer (Invitrogen). Proteins were then transferred to a 0.2 μm nitrocellulose membrane (Amersham) in 24 mM Tris/192 mM glycine/20% MeOH at 400 mA for 2h using a tank blot system (Bio-Rad). In order to detect any blotting artifacts, the proteins on the membranes were visualized with Ponceau S (Sigma). The membranes were destained with PBS and then blocked with PBS/5% nonfat milk (Oxoid) for 1h at RT. Incubations with primary antibodies (diluted 1:1,000) in PBS-T were carried out overnight at 4°C. Then the membranes were washed three times with PBS-T for 10 min and afterward incubated with fluorescent secondary antibodies (IR Dye 680 or 800: Li-COR Biosciences.) diluted 1:20,000 in PBS-T for 1h at RT. Following three washing steps with PBS-T for 10 min each, the membranes were scanned using an LI-COR Odyssey CLX. Signal intensities were calculated using the Image Studio Version 2.1 software (LI-COR Biosciences). Blots were reused for staining with additional primary antibodies following the same procedure.

[2] = molecular target: T1, oxMIF (Homo sapiens, UniProt P14174); assay: 15N-HSQC NMR binding to H2O2-treated wild-type MIF (oxMIF)
T1 construct: made in house; host or cells: E. coli BL21-(DE3)-Rosetta-pLysS, pET11a-MIF, then H2O2 treatment
T1 sequence (P14174 2-115 limits assumed): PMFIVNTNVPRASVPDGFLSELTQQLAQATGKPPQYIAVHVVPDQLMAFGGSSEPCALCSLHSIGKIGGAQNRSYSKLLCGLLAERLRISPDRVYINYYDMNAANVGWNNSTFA
Protocol: The NMR F1-[^13C,^15N]-filtered-[^1H,^1H]-NOESY spectra for structure calculation were recorded on a 700 MHz Bruker Avance Neo spectrometer equipped with cryoprobe, and the ^15N-HSQC were recorded on a 600 MHz Bruker Avance III spectrometer equipped with cryoprobe. The filtered NOESY were recorded for MIF 1.0 mM and saturation of PAV-174, i.e., 1.0 mM of PAV-174. at 310K to reduce the rotational correlation time of the system, with two different mixing times 60 and 100ms; the free induction decay was measured for 106ms (2048 points) and the indirect dimension was set to 20ms (400 points); the signal acquisition was performed with 160 scans and the interscan delay was set to 1.5s. The ^15N-HSQC were measured at 298K with 121ms (2048 points) in the direct dimension and 53 ms (256 points) in the indirect dimension; the signal acquisition was performed through the accumulation of 16 scans and an interscan delay of 1s was applied. The cross-peaks corresponding to ligand-proteins were used to derive ligand-protein distant restraints using the initial rates of the normalized NOE intensity build-up curves.[91] […] The intermolecular distance restraints were kept semiambiguous, i.e., only the ligand signals were assigned, and the MIF- PAV-174 complex was calculated with the NMR^2 software[92] using the CYANA software for tortion angle dynamics structure calculation.

[3] = parameters: species or system SD rats; settings: rat, in vivo, ip, 5 mg/kg
Protocol: (§1) Figure S5. PAV-17 4 decreases ta u phosphorylation and aggr e gat ion in vi v o. Rel a ted to […]
(§2) (A) MTD (Maximum Tol erated Dose) assessment of PAV com pounds in BALB/c mice. BALB/c mice we re dosed through int ra pe rit o ne al (IP ) ro ute at di ff e ren t doses as pe r bo dy we igh t of an ima ls an d mice we re obser ved at di ff e ren t time interval for toxic signs till 48 h, PD (Post dose) . MTD at wa s declared at NOAEL (No-obser ved-adver se-effect level) conc. of PAV […]
(§3) (B) PAV-61 7 dose- an d MIF-de pe nd en t ly reduces tau phosphorylati on (A T8) . SH-SY5Y-P301S-control or -MIF-knockdown cel ls we re treated with the indicated concentrations of PAV- […]
(§4) cel ls. The di ag ram s show the signals of AT8 normalized to total tau (HT7 ) from six (n =6) in de pe nd en t exper iments. One-wa y ANOVA (Sidak´s post-hoc)
(§5) (C) Pharmacokinetic assessment of PAV-61 7 in Sprague Da wley ra ts (S D). Ma le SD ra ts (n=4) we re dosed via three ro utes na me ly intravenous (IV )- 1 mg/kg, (IP )- 5 mg/kg an d per ora l (P O)- 5 mg/kg. Plasma concentration wa s anal yzed at di ff e ren t time intervals. Pharmacokinetic pa ra met e rs we re de t erm ine d usi ng Win No nlin . Cma x (p ea k pl asma concentration) achieved through IV wa s 12 8 ng / mL, IP wa s 36 2. 6 ng / mL an d PO wa s 15 1. 1 ng / mL at Tmax (time of pe ak concentration obser ved) 1 h, 0. 5 h an d 4 h respectively. […]

[4] = type: in vivo; settings: compared with PAV-174
Protocol: as §1, §2, §3, §4, §5

Structure (SMILES)	phosphorylation of Akt at Ser473 [1]	binding to redMIF and oxMIF (chemical shift perturbations) [2]	tissue penetration [3]	toxicity in mice [4]
CCc1cc(N2CCCC2)cc2[s+]c3cc(N4CCCC4)cc(C)c3nc12.[I-] [PAV-174, 3,7-Di(pyrrolidine-1-yl) 1-ethyl-9-methyl-phenothiazin-5-ium iodide]	increased	bound to both MIF species		
[I-].c1cc2nc3ccc(N4CCCC4)cc3[s+]c2cc1N1CCCC1 [PAV-617, 3,7-Di(pyrrolidine-1-yl)phenothiazine-5-ium iodide]			good tissue penetration, including the brain	less toxic in mice

Reference: PMC12866179, “Oxidized MIF is an Alzheimer’s disease drug target relaying external risk factors to tau pathology” (Cell Reports Medicine, 2025)
